Assays:
[1] = test system: human adipocytes; assay: mRNA expression (Taqman RT-PCR) in differentiated human adipocytes after 7 day treatment; format: cell-based
Description: Carotenoids tested were β-carotene (βCar), Lycopene (lyco) and lutein. […] In our preclinical lab at PBRC, human subcutaneous adipocyte cell cultures were treated with naringenin at a concentration of 10 μM for seven days. […] Differentiated human adipocytes were treated with 10 μM naringenin for 7 days. Gene expression was analyzed using Taqman RT-PCR and values are expressed as fold increase over untreated controls (n=5). […] Activated AMPK induces glucose consumption and fat oxidation in adipose tissue. Carotenoids are vitamin A precursors found in foods and their consumption can cause reduction in adiposity and insulin resistance in pediatric clinical trials (Canas et al., 2012; Canas et al., 2017). After ingestion, they are metabolized into retinoid ligands for retinoic acid receptors (RAR) and retinoic X receptors (RXR) which are localized in the cell nucleus. RXRs form heterodimers with PPARs in transcriptional complexes known to target genes for energy expenditure and fat oxidation (Bonet et al., 2015).

[2] = test system: human adipocytes; assay: qRT-PCR in human adipocytes (hADSC) treated two days with naringenin and inhibitors; format: cell-based; settings: for CPT1β mRNA expression compared to control / UCP1 mRNA expression compared to control: naringenin 30 μM (whole orange extract), two days
Description: Human white adipocytes were treated for 2d with naringenin in the presence of inhibitors of metabolic pathways to determine the mechanism of action for stimulating fat oxidation and thermogenic energy expenditure.
Naringenin increased UCP1 and CPT1β mRNA induction compared to control (p<0.001). PPARα and PPARγ inhibition reduced UCP1 and CPT1β mRNA expression (p<0.001). Each experiment was conducted with three biological replicates and four technical replicates.
The whole orange extract was dissolved in DMSO at 15 mM (based on 28% naringenin content) and added to cells at a dilution of 1:500 to achieve a final concentration of 30 μM. The inhibitors added to the naringenin-treated cells included: peroxisome proliferator-activated receptor alpha (PPARα) antagonist GW6471 and peroxisome proliferator-activated receptor gamma (PPARγ) antagonist GW9662 (Cayman Chemical, Ann Arbor, Mich.) at 10 μM concentration, protein kinase A (PKA) inhibitor H89 (Millipore Sigma, Burlington, Mass.) at 20 μM concentration, and protein kinase G (PKG) inhibitor […] (Biolog Life Science Institute, AXXORA, LLC, Farmingdale, N.Y.) at 50 μM concentration. GW6471 and GW9662 were dissolved in DMSO at 1000×, H89 was dissolved in PBS at 500×, and Rp-8-pCPT-cGMPS was dissolved in PBS at 100× prior to dilution in cell culture medium. Following a two-day treatment, the cells were harvested with Trizol reagent. RNeasy Mini Kit (Qiagen, Germantown, Md.) was used to isolate total RNA following manufacturer's protocol. The expression of UCP1, CPT1β, and GLUT4 was quantified with one-step reverse transcriptase PCR using the reverse PCR primer to prime cDNA synthesis as previously described.^6

[3] = 150 mg three times a day for eight weeks (Murugesan et al., 2020); cited from earlier work
[4] = molecular target: T1, PPARγ (Homo sapiens, UniProt P37231); settings: reporter gene assays; cited from earlier work
T1 sequence (P37231 1-505): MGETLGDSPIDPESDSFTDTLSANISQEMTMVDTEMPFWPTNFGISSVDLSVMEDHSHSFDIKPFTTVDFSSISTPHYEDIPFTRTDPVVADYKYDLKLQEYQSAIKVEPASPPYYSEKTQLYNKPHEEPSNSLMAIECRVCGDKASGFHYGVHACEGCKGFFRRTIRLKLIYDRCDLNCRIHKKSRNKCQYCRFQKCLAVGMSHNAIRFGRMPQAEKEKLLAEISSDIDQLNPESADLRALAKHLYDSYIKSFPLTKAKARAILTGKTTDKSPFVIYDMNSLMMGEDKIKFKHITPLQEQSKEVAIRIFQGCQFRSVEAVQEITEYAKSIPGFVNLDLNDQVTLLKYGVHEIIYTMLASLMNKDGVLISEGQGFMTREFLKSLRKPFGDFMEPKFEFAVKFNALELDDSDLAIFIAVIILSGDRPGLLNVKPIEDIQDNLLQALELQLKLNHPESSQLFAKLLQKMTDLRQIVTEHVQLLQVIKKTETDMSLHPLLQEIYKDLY

[5] = molecular target: T2, PPARα (Homo sapiens, UniProt Q07869); settings: reporter gene assays; cited from earlier work
T2 sequence (Q07869 1-468): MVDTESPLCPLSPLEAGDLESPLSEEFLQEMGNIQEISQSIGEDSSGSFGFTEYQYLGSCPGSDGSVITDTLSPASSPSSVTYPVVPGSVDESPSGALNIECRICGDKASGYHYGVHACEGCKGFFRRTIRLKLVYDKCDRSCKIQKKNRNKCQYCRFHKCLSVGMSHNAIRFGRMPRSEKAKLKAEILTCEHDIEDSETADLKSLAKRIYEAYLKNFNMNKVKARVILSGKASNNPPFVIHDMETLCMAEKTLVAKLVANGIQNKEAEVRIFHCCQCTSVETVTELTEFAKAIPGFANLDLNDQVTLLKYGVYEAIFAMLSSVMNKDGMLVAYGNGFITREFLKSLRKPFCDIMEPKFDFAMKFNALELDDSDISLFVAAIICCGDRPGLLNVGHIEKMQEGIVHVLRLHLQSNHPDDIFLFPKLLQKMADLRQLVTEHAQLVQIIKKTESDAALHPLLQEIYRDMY

RNA and protein expression of uncoupling protein-1, adipose tissue glyceride lipase, carnitine palmitoyl transferase-1, glucose transporter-4, ChREBP alpha and beta ([1]; naringenin at 10 micromolar): increasing RNA and protein expression
Structure (SMILES): O=C1C[C@@H](c2ccc(O)cc2)Oc2cc(O)cc(O)c21 [naringenin]
expression of UCP1, GLUT4 and CPT-1 genes ([1]; 10 μM for seven days, human subcutaneous adipocytes): Significant increases | Adiponectin RNA expression and adiponectin protein levels ([1]; naringenin at 10 micromolar): went up | CPT1β mRNA expression compared to control [2]: more than three-fold | UCP1 mRNA expression compared to control [2]: more than three-fold | CPT1β mRNA expression compared to control ([2]; listed as Naringenin): increased | UCP1 mRNA expression compared to control ([2]; listed as Naringenin): increased | GLUT4 mRNA expression ([2]; naringenin, two-day period): no increase | body weight reduction [3]: 2.5% | activation of PPARγ [4]: Direct activation | activation of PPARα [5]: Direct activation

Source: patent publication US20210260022A1, “SYNERGY FOR INCREASING ENERGY EXPENDITURE AND INSULIN SENSITIVITY” (The Board of Supervisors of Louisiana State University and …, priority 2018, published 2021)
